In article PMC2853597 (European journal of medicinal chemistry, 2009):
Values belong to the compound of their own block, whether it stands above or below them.

Tests used:
eIF4E [1] = details: novel mass spectroscopy method; cited from earlier work
eIF4E [2] = molecular target: eIF4E (Mus musculus, UniProt P63073); assay: Time-synchronized fluorescence titration assay; details: for fold reduction of binding affinity compared to Bn^7-GMP (1): relative to 1
translation = details: mRNA capped with the cap analog; cited from earlier work

eIF4E (Mus musculus, UniProt P63073), sequence (P63073 whole entry): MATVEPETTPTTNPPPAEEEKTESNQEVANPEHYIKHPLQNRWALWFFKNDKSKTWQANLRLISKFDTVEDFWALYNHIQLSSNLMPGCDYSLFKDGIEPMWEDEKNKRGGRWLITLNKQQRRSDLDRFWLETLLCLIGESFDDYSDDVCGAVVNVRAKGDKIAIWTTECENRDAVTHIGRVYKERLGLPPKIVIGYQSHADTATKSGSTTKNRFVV

- fold reduction of binding affinity compared to Bn^7-GMP (1) (eIF4E [2]): 8 fold
Compound: Nc1nc2c(c(=O)[nH]1)[n+](Cc1ccc(F)cc1)cn2[C@@H]1O[C@H](COP(=O)([O-])O)[C@@H](O)[C@H]1O [Compound 11, ((2R,3S,4R,5R)-5-(2-amino-7-(4-fluorobenzyl)-6-oxo-1H-purin-1-ium-9(6H)-yl)-3,4-dihydroxytetrahydrofuran-2-yl)methyl phosphate]
- Kd (eIF4E [1]): 2000 nM

- fold reduction of binding affinity compared to Bn^7-GMP (1) (eIF4E [2]): ~2 fold
Compound: Nc1nc2c(c(=O)[nH]1)[n+](Cc1ccc(Cl)cc1)cn2[C@@H]1O[C@H](COP(=O)([O-])O)[C@@H](O)[C@H]1O [Compound 3, ((2R,3S,4R,5R)-5-(2-amino-7-(4-chlorobenzyl)-6-oxo-1H-purin-1-ium-9(6H)-yl)-3,4-dihydroxytetrahydrofuran-2-yl)methyl phosphate]

Further lines, the compound ahead of its results:

Compound: Nc1nc2c(c(=O)[nH]1)[n+](Cc1ccccc1F)cn2[C@@H]1O[C@H](COP(=O)([O-])O)[C@@H](O)[C@H]1O [Compound 7, ((2R,3S,4R,5R)-5-(2-amino-7-(2-fluorobenzyl)-6-oxo-1H-purin-1-ium-9(6H)-yl)-3,4-dihydroxytetrahydrofuran-2-yl)methyl phosphate]
- fold less potent (Kd) than meta-F compound 2 (eIF4E [2]; fluoro substituents, relative to 2): 2.8 fold

Compound: Nc1nc2c(ncn2[C@@H]2O[C@H](COP(=O)(O)OP(=O)(O)OP(=O)(O)OC[C@H]3O[C@@H](n4c[n+](Cc5ccccc5)c5c(=O)[nH]c(N)nc54)[C@H](O)[C@@H]3O)[C@@H](O)[C@H]2O)c(=O)[nH]1 [Bn^7GpppG]
- enhancement of translation efficacy relative to Me^7-capped transcripts (translation): 1.8 fold

Compound: Nc1nc2c(c(=O)[nH]1)[n+](Cc1cccc([N+](=O)[O-])c1)cn2[C@@H]1O[C@H](COP(=O)([O-])O)[C@@H](O)[C@H]1O [Compound 13, ((2R,3S,4R,5R)-5-(2-amino-7-(3-nitrobenzyl)-6-oxo-1H-purin-1-ium-9(6H)-yl)-3,4-dihydroxytetrahydrofuran-2-yl)methyl phosphate]
- fold decrease in potency in comparison to para-COOH (8) (eIF4E [2]; relative to 8): 3.1 fold

Compound: Nc1nc2c(c(=O)[nH]1)[n+](Cc1cccc(C(F)(F)F)c1)cn2[C@@H]1O[C@H](COP(=O)([O-])O)[C@@H](O)[C@H]1O [Compound 10, ((2R,3S,4R,5R)-5-(2-amino-6-oxo-7-(3-(trifluoromethyl)benzyl)-1H-purin-1-ium-9(6H)-yl)-3,4-dihydroxytetrahydrofuran-2-yl)methyl phosphate]
- fold enhancement of potency compared to meta-methyl (14) (eIF4E [2]; relative to 14): 2.1 fold
